In ChEMBL document CHEMBL1126161, “3,4-Dihydroquinolin-2(1H)-ones as combined inhibitors of thromboxane A2 synthase and cAMP phosphodiesterase” (J Med Chem, 1992):

What was measured:
[1] = test system: Rattus norvegicus; experiment: Antihypertensive activity in conscious spontaneously hypertensive rat (SHR), percent change in Systolic blood pressure (SBP) after 2 hr at 10 mg/kg peroral dose; type: functional; conditions: route oral
[2] = test system: Rattus norvegicus; experiment: Antihypertensive activity in conscious spontaneously hypertensive rat (SHR), percent change in heart rate (beats/min) after 2 hr at 10 mg/kg peroral dose; type: functional; conditions: route oral
[3] = test system: Rattus norvegicus; experiment: Effect of TXA2 synthase inhibitor (compound) on serum TXB2 level in rats at 50 mg/kg po, after 2 hr; type: functional
[4] = organism: Homo sapiens; experiment: Ratio of IC50(w/oPAM)/IC50(w/PAM); type: functional
[5] = test system: Rattus norvegicus; experiment: (§1) Antihypertensive activity in conscious spontaneously hypertensive rat (SHR), percent change in Systolic blood pressure (SBP) after 1 hr; type: functional; design: concentration or dose not given beside the values
[6] = organism: Homo sapiens; experiment: In vitro inhibition of ADP-induced aggregation of human PRP in the presence of pig aortal microsomes (PAM).; type: functional
[7] = test system: Rattus norvegicus; experiment: Antihypertensive activity in conscious spontaneously hypertensive rat (SHR), percent change in heart rate (beats/min) after 1 hr at 10 mg/kg peroral dose; type: functional; conditions: route oral
[8] = test system: Rattus norvegicus; experiment: Antihypertensive activity in conscious spontaneously hypertensive rat (SHR), percent change in Systolic blood pressure (SBP) after 4 hr at 10 mg/kg peroral dose; type: functional; conditions: route oral
[9] = test system: Rattus norvegicus; experiment: Antihypertensive activity in conscious spontaneously hypertensive rat (SHR), percent change in heart rate (beats/min) after 4 hr at 10 mg/kg peroral dose; type: functional; conditions: route oral
[10] = organism: Homo sapiens; experiment: Inhibition of ADP-induced aggregation of human PRP in the absence of pig aortal microsomes (PAM); type: functional
[11] = target: Phosphodiesterase 3 (Homo sapiens, UniProt Q14432+Q13370); experiment: Inhibition of human blood platelet c-AMP phosphodiesterase
[12] = target: T1, Thromboxane-A synthase (Homo sapiens, UniProt P24557); experiment: Compound was evaluated for the inhibition of human blood platelet, thromboxane A2 synthase
T1 sequence (P24557 whole entry): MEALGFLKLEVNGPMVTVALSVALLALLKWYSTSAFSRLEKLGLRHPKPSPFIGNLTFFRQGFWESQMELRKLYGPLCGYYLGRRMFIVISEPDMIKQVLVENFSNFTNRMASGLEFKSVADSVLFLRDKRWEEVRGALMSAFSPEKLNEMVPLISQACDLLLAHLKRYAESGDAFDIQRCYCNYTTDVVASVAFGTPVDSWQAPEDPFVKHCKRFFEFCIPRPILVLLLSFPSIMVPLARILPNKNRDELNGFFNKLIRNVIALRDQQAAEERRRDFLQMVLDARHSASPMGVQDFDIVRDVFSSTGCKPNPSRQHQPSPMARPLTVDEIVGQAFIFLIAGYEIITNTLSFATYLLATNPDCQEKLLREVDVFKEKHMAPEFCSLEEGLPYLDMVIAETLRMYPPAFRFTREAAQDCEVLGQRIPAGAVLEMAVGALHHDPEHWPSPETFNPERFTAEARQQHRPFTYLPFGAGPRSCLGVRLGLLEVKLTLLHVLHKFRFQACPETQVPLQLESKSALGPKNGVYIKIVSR

[13] = organism: Homo sapiens; experiment: Ratio of IC50(PDE)/IC50(TXA2); type: functional
[14] = organism: Homo sapiens; experiment: Inhibition of [14C]arachidonic acid induced platelet aggregation at 10 uM (Control TXB2 = 14.9+/-2.5); type: functional
[15] = test system: Mus musculus; experiment: Protection against mortality in pulmonary thromboembolism model in mice at 10 mg/kg; type: functional
[16] = test system: Rattus norvegicus; experiment: Antihypertensive activity in conscious spontaneously hypertensive rat (SHR), percent change in Systolic blood pressure (SBP) after 4 hr; type: functional
[17] = organism: Homo sapiens; experiment: Inhibition of [14C]arachidonic acid induced platelet aggregation at 1 uM (Control TXB2 = 14.9+/-2.5); type: functional
[18] = test system: Rattus norvegicus; experiment: Ex vivo inhibition of blood platelet aggregation in rats at 50 mg/kg peroral dose after 3 hr; type: functional; conditions: route oral
[19] = test system: Mus musculus; experiment: Protection against mortality in pulmonary thromboembolism model in mice at 30 mg/kg; type: functional
[20] = test system: Rattus norvegicus; experiment: Ex vivo inhibition of blood platelet aggregation in rats at 50 mg/kg peroral dose after 8 hr; type: functional; conditions: route oral
[21] = organism: Homo sapiens; experiment: Inhibition of [14C]arachidonic acid induced platelet TXB2 formation at 0.1 uM (Control TXB2 = 14.9+/-2.5)
[22] = test system: Rattus norvegicus; experiment: Antihypertensive activity in conscious spontaneously hypertensive rat (SHR), percent change in heart rate (beats/min) after 2 hr; type: functional
[23] = organism: Homo sapiens; experiment: Inhibition of [14C]arachidonic acid induced 6-keto-PGF1-alpha formation at 10 uM (Control 6-keto-PGF1-alpha = 1.45+/-0.6)
[24] = test system: Rattus norvegicus; experiment: Ex vivo inhibition of blood platelet aggregation in rats at 50 mg/kg peroral dose after 5 hr; type: functional; conditions: route oral
[25] = test system: Rattus norvegicus; experiment: Antihypertensive activity in conscious spontaneously hypertensive rat (SHR), percent change in heart rate (beats/min) after 4 hr; type: functional
[26] = organism: Homo sapiens; experiment: Inhibition of [14C]arachidonic acid conversion to 6-keto-PGF1-alpha in platelets at 1 uM (Control 6-keto-PGF1-alpha = 1.45+/-0.6)
[27] = test system: Rattus norvegicus; experiment: as §1; type: functional
[28] = test system: Mus musculus; experiment: Protection against mortality in pulmonary thromboembolism model in mice at 1 mg/kg; type: functional
[29] = test system: Rattus norvegicus; experiment: Antihypertensive activity in conscious spontaneously hypertensive rat (SHR), percent change in heart rate (beats/min) after 1 hr; type: functional
[30] = test system: Rattus norvegicus; experiment: Antihypertensive activity in conscious spontaneously hypertensive rat (SHR), percent change in Systolic blood pressure (SBP) after 2 hr; type: functional
[31] = test system: Mus musculus; experiment: Protection against mortality in pulmonary thromboembolism model in mice at 3 mg/kg; type: functional

## O=C1CCc2cc(/C=C/Cn3ccnc3)ccc2N1
[1]
  Change systolic BP: -17%
[2]
  Change in heart rate: 15%
[3]
  inhibition in vivo at 50 mg/kg: -28%
[4]
  Ratio: 94
[5]
  Change systolic BP: -19%
[6]
  IC50: 1.7 µM
[7]
  Change in heart rate: 15%
[8]
  Change systolic BP: 5%
[9]
  Change in heart rate: 14%
[10]
  IC50: 160 µM

## C=C(Cn1ccnc1)c1ccc2c(c1)CCC(=O)N2
[4]
  Ratio: 9.7
[6]
  IC50: 7.6 µM
[10]
  IC50: 74 µM

## O=C1CCc2cc(-n3ccnc3)ccc2N1
[11]
  IC50: 16 µM
[3]
  inhibition in vivo at 50 mg/kg: 77%
[4]
  Ratio: 40
[6]
  IC50: 2 µM
[12]
  IC50: 2 µM
[13]
  Ratio: 8
[10]
  IC50: 80 µM

## O=C1CCc2cc(-c3cccnc3)ccc2N1
[14]
  TXB2 level at 10 µM: 4.5%
[11]
  IC50: 4.4 µM
[15]
  survival at 10 mg/kg: 40%
[16]
  Change systolic BP: -22%
[17]
  TXB2 level at 1 µM: 14.8%
[18]
  inhibition in vivo at 50 mg/kg: 94.7%
[19]
  survival at 30 mg/kg: 50%
[20]
  inhibition in vivo at 50 mg/kg: 4.7%
[21]
  TXB2 level at 0.1 µM: 21.1%
[22]
  Change in heart rate: 18%
[23]
  6-keto-PGF1α level at 10 µM: 31.9%
[3]
  inhibition in vivo at 50 mg/kg: 94%
[24]
  inhibition in vivo at 50 mg/kg: 53.2%
[4]
  Ratio: 50
[6]
  IC50: 0.54 µM
[25]
  Change in heart rate: 13%
[12]
  IC50: 0.54 µM
[26]
  6-keto-PGF1α level at 1 µM: 7.7%
[13]
  Ratio: 8.1
[27]
  Change systolic BP: -42%
[28]
  survival at 1 mg/kg: 20%
[29]
  Change in heart rate: 13%
[30]
  Change systolic BP: -28%
[10]
  IC50: 27 µM
[31]
  survival at 3 mg/kg: 40%

## CCCCCC(c1ccc2c(c1)CCC(=O)N2)n1ccnc1 (configuration not stated)
[6]
  IC50: 2.5 µM
[10]
  IC50: 37 µM

## O=C1CCc2cc(/C(=C/c3cccnc3)c3ccccc3)ccc2N1
[6]
  IC50: 170 µM

## O=C1CCc2cc(/C=C/c3cccnc3)ccc2N1
[1]
  Change systolic BP: -7%
[2]
  Change in heart rate: 23%
[4]
  Ratio: 15
[5]
  Change systolic BP: -7%
[6]
  IC50: 6.2 µM
[7]
  Change in heart rate: 11%
[8]
  Change systolic BP: -12%
[9]
  Change in heart rate: 32%
[10]
  IC50: 95 µM
